The source of these data is patent US6821967B2, “Substituted piperazine derivatives, the preparation thereof and their use as medicaments” (Boehringer Ingelheim Pharma KG, priority 1999, dated 2004).

As for `O=C(NCc1ccc(F)cc1)C1(CCCCN2CCN(c3nc4ccccc4s3)CC2)c2ccccc2-c2ccccc21` [Example 59, 9-[4-(4-benzothiazol-2-yl-piperazin-1-yl)-butyl]-9H-fluorene-9-carboxylic acid-4-fluoro-benzylamide], the melting point came to 160 °C. The figure for `C[C@@H]1CN(c2ccc3ccccc3n2)C[C@H](C)N1CCCCC1(C(=O)NCc2ccc(F)c(F)c2)c2ccccc2-c2ccccc21` [Example 98, 9-[4-(cis-2,6-dimethyl-4-quinolin-2-yl-piperazin-1-yl)-butyl]-9H-fluorene-9-carboxylic acid-3,4-difluoro-benzylamide] is 162 °C; for `O=C(NCC(F)(F)F)C1(CCCCN2CCN(c3ccc4cccc(Cl)c4n3)CC2)c2ccccc2Oc2ccccc21` [Example 106, 9-{4-[4-(8-chloro-quinolin-2-yl)-piperazin-1-yl]-butyl}-9H-xanthene-9-carboxylic acid-(2,2,2-trifluoro-ethyl)-amide] it is 68 °C.

As to `CCCCNC(=O)C1(CCCCN2CCN(c3ccc4ccccc4n3)CC2)c2ccccc2Oc2ccccc21` [Example 118, 9-[4-(4-quinolin-2-yl-piperazin-1-yl)-butyl]-9H-xanthene-9-carboxylic acid-Butylamide], the melting point lay in the range of 45 to 53 °C. The figure for `Cn1c(N2CCN(CCCCC3(C(=O)NCc4ccc(F)cc4)c4ccccc4-c4ccccc43)CC2)nc2ccc(F)cc21` [Example 62, 9-{4-[4-(6-fluoro-1-methyl-1H-benzimidazol-2-yl)-piperazin-1-yl]-butyl}-9H-fluorene-9-carboxylic acid-4-fluoro-benzylamide] is 43 °C.

Regarding `O=C(NCC(F)(F)F)C1(CCCCN2CCN(c3ccc4cccc(Br)c4n3)CC2)c2ccccc2-c2ccccc21` [Example 32, 9-{4-[4-(8-bromo-quinolin-2-yl)-piperazin-1-yl]-butyl}-9H-fluorene-9-carboxylic acid-(2,2,2-trifluoro-ethyl)-amide], the melting point was determined as 66 °C. As for `O=C(NCC(F)(F)F)C1(CCCCN2CCN(c3cc(-c4ccccc4)c4ccccc4n3)CC2)c2ccccc2-c2ccccc21` [Example 25, 9-{4-[4-(4-phenyl-quinolin-2-yl)-piperazin-1-yl]-butyl}-9H-fluorene-9-carboxylic acid-(2,2,2-trifluoro-ethyl)-amide], the melting point amounted to 105 °C.

As to `O=C(NCC(F)(F)F)C1(CCCCN2CCN(c3ccc4cc(Cl)ccc4n3)CC2)c2ccccc2-c2ccccc21` [Example 28, 9-{4-[4-(6-chloro-quinolin-2-yl)-piperazin-1-yl]-butyl}-9H-fluorene-9-carboxylic acid-(2,2,2-trifluoro-ethyl)-amide], the melting point was 151 °C. With `Cn1c(N2CCN(CCCCC3(C(=O)NCC(F)(F)F)c4ccccc4-c4ccccc43)CC2)nc2cc(F)ccc21` [Example 18, 9-{4-[4-(5-fluoro-1-methyl-1H-benzimidazol-2-yl)-piperazin-1-yl]-butyl}-9H-fluorene-9-carboxylic acid-(2,2,2-trifluoro-ethyl)-amide], the melting point was 59 °C. Consider `C[C@H]1CN(c2ccc3ccccc3n2)CCN1CCCCC1(C(=O)NCC(F)(F)F)c2ccccc2-c2ccccc21` [Example 38, 9-{4-[(S)-2-methyl-4-quinolin-2-yl-piperazin-1-yl]-butyl}-9H-fluorene-9-carboxylic acid-(2,2,2-trifluoro-ethyl)-amide], for which the melting point is 102 °C. The figure for `O=C(NCC(F)(F)F)C1(CCCN2CCN(c3nc4ccccc4s3)CC2)c2ccccc2-c2ccccc21` [Example 122, 9-[3-(4-benzothiazol-2-yl-piperazin-1-yl)-propyl]-9H-fluorene-9-carboxylic acid-(2,2,2-trifluoro-ethyl)-amide] is 68 °C. `COc1cccc2ccc(N3CCN(CCCCC4(C(=O)NCC(F)(F)F)c5ccccc5-c5ccccc54)CC3)nc12` [Example 36, 9-{4-[4-(8-methoxy-quinolin-2-yl)-piperazin-1-yl]-butyl}-9H-fluorene-9-carboxylic acid-(2,2,2-trifluoro-ethyl)-amide] displayed a melting point of 67 °C. As for `O=C(NCCc1ccccc1)C1(CCCCN2CCN(c3ccc4ccccc4n3)CC2)c2ccccc2-c2ccccc21` [Example 92, 9-[4-(4-quinolin-2-yl-piperazin-1-yl)-butyl]-9H-fluorene-9-carboxylic acid-(phenethyl)-amide], the melting point is 55 to 57 °C. `C[C@@H]1CN(c2nc3ccccc3s2)C[C@H](C)N1CCCCC1(C(=O)NCC(F)(F)F)c2ccccc2-c2ccccc21` [Example 45, 9-[4-(4-benzothiazole-2-yl-cis-2,6-dimethyl-piperazin-1-yl)-butyl]-9H-fluorene-9-carboxylic acid-(2,2,2-trifluoro-ethyl)-amide] yielded a melting point of 163 to 165 °C. In turn, `O=C(NCC(F)(F)F)C1(CCCCN2CCN(c3ccc4ccc(Cl)cc4n3)CC2)c2ccccc2-c2ccccc21` [Example 26, 9-{4-[4-(7-chloro-quinolin-2-yl)-piperazin-1-yl]-butyl}-9H-fluorene-9-carboxylic acid-(2,2,2-trifluoro-ethyl)-amide] yielded a melting point of 146 to 148 °C.

Take `Cn1c(N2CCN(CCCCC3(C(=O)NCC(F)(F)F)c4ccccc4-c4ccccc43)CC2)nc2cc(Cl)ccc21` [Example 19, 9-{4-[4-(5-chloro-1-methyl-1H-benzimidazol-2-yl)-piperazin-1-yl]-butyl}-9H-fluorene-9-carboxylic acid-(2,2,2-trifluoro-ethyl)-amide]: the melting point is 155 °C.

Consider `C[C@@H]1CN(c2nc3ccccc3n2C)C[C@H](C)N1CCCCC1(C(=O)NCC(F)(F)F)c2ccccc2-c2ccccc21` [Example 43, 9-{4-[cis-2,6-dimethyl-4-(1-methyl-1H-benzimidazol-2-yl)-piperazin-1-yl]-butyl}-9H-fluorene-9-carboxylic acid-(2,2,2-trifluoro-ethyl)-amide], for which the melting point turned out to be 77 °C. The result for `O=C(NCC(F)(F)C(F)(F)F)C1(CCCCN2CCN(c3ccc4ccccc4n3)CC2)c2ccccc2-c2ccccc21` [Example 86, 9-[4-(4-quinolin-2-yl-piperazin-1-yl)-butyl]-9H-fluorene-9-carboxylic acid-(2,2,3,3,3-pentafluoro-propyl)-amide] reads 120 °C; that for `COc1ccc(CNC(=O)C2(CCCCN3CCN(c4ccc5ccccc5n4)CC3)c3ccccc3-c3ccccc32)cc1OC` [Example 83, 9-[4-(4-quinolin-2-yl-piperazin-1-yl)-butyl]-9H-fluorene-9-carboxylic acid-3,4-dimethoxy-benzylamide], 118 °C; that for `COc1ccc(CNC(=O)C2(CCCCN3CCN(c4ncc5ccccc5n4)CC3)c3ccccc3-c3ccccc32)cc1` [Example 74, 9-[4-(4-quinazolin-2-yl-piperazin-1-yl)-butyl]-9H-fluorene-9-carboxylic acid-4-methoxy-benzylamide], 143 to 144 °C. With `C[C@@H]1CN(c2ncc3ccccc3n2)C[C@H](C)N1CCCCC1(C(=O)NCC(F)(F)F)c2ccccc2-c2ccccc21` [Example 47, 9-[4-(cis-2,6-dimethyl-4-quinazolin-2-yl-piperazin-1-yl)-butyl]-9H-fluorene-9-carboxylic acid-(2,2,2-trifluoro-ethyl)-amide], the melting point was found to be 174 °C.
